Data: article PMC5507595 (Free radical biology & medicine, 2017)

Target: protein disulfide isomerase (PDI) (Homo sapiens, UniProt P07237)
Assay: absorbance titration of MNS with reduced PDI
Type: binding

protein disulfide isomerase (PDI), sequence (P07237 18-508): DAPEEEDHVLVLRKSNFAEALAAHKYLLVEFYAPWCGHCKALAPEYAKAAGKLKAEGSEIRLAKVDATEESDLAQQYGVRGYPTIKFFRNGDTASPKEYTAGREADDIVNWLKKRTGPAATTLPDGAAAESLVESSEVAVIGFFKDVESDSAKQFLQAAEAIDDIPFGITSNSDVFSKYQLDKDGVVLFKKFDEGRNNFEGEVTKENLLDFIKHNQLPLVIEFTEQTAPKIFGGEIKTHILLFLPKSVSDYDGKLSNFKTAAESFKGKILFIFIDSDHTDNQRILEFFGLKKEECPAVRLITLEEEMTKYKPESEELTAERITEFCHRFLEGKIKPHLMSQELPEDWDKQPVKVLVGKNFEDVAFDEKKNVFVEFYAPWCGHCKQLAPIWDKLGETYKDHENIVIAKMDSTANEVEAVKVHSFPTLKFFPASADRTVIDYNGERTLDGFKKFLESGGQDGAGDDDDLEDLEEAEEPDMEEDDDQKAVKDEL

## O=[N+]([O-])C=Cc1ccc2c(c1)OCO2 [3,4-methylenedioxy-β-nitrostyrene]
  Kd: low micromolar
